These results are taken from US10111880B2, “Compounds for the treatment of diabetes and disease complications arising from same” (BEN-GURION UNIVERSITY OF THE NEGEV RESEARCH AND DEVELOPMENT …, priority 2013, dated 2018).

Experiment [1] relates to STZ-induced diabetic Wistar rats. The experiment in a line: Blood glucose in STZ-induced diabetic rats treated with AGS-500. Format: in vivo, rat. As to the method:
The effect of compounds of the present invention on diabetes per se, and disease complications arising as a result of diabetes was evaluated. Streptozotocin treatment of mice and rats are known in vivo diabetes models. Intraperitoneal injections of reduced STZ concentrations (35 mg/kg) was evaluated in mice and rats, in order to determine whether in a model causing only partial damage to pancreatic islet β-cells, whether the compounds of this invention would be helpful. Eight-week-old Wistar female rats received two doses of STZ administered intraperitoneally (60 or 35 mg/kg in 0.1M Citrate buffer; at 5-day intervals), which induced diabetes in all animal, since not all rats that received a single injection of STZ became diabetic in this model. These animals were then treated every 3 days with a subcutaneous injection of compound AGS-500 (6 mg/kg) for from 2-5 weeks to generate a Type I Diabetes phenotype. Blood glucose levels were monitored every 3 days in the rats. Ten weeks after the beginning of this study, each mice group was divided into 2 sub-groups, one of each also received insulin (4 U\Kg) every 2 days, except for the non-diabetic sub-groups. Acetic acid (1%) served as the vehicle control. Diabetes was diagnosed when non-fasting blood glucose levels were above 200 mg/dl. Extension of these studies included treatment of rats divided into 4 groups, as follows: 3 groups received 2 injections of STZ (35 mg/kg) at day 0′ and day 15′, serving as the diabetic group, while the non-diabetic group received 2 injections of Citrate buffer in accordance with the stated schedule. One diabetic group was administered AGS-500 intraperitoneally (6 mg/kg) every 12 hours (12 h) starting at day 4′, the second diabetic group received DMSO every 12 h starting at day 4′, and a third diabetic group was not injected with either AGS-500 or DMSO.

The test system of experiment [2] is STZ-induced diabetic ICR mice. The experiment in a line: Glucose Tolerance Test (GTT) in STZ diabetic mice after 2 and 5 months. Conditions: for Improvement (fold): GTT after 2 months; for Fold of Improvement: GTT after 5 months; for Time needed for the Pancreas to cope glucose load after 5 months / Time needed for the Pancreas to cope with glucose load after 2 months: GTT. The experiment is classed as in vivo, mouse. As to the method: Glucose Tolerance Test: Animals were fasted for 12 hr with free access to water. Blood-glucose levels after fast were measured and then the animals received an i.p. injection of glucose (1.5 g/kg). Blood samples were taken at several intervals (for the duration of 2 hr), when glucose levels above 200 mg/dl at 2 hr confirmed a diagnosis of diabetes.
[…] Mice were subjected to 12 hours fast (with water) weighed, blood glucose level was measured and Glucose at 1.5 gr/kg in no more than 100 μl was injected IP. Blood glucose levels were measured at 10, 20, 30, 60, 90 and 120 min after glucose injection. glucose tolerance test.

Experiment [3] concerns STZ-induced diabetic ICR mice. Put plainly: Blood glucose over time in STZ mice, short course (2 weeks) AGS treatment with or without insulin. The experiment is classed as in vivo, mouse. How it is done:
Eight weeks-old female ICR mice were injected intraperitoneally (IP) with Streptozotocin (STZ), at a dose of 40 mg/Kg, for 5 consecutive days. The following day and onward, mice were administered the AGS compounds (499 or 500, as indicated), at a dose of 6 mg/Kg, either subcutaneously or orally, every other day. Blood glucose levels were monitored daily.
After the establishment of diabetes (i.e. three consecutive blood glucose measurements of >200 mg/dL), mouse groups were further sub-divided into 2 sub-groups, one of each received insulin (gradual administration of 0.5-6 units/Kg, over a period of 2 weeks) subcutaneously, every other day. Blood glucose levels were monitored daily.

Where [4] appears, read: STZ rats, AGS-500 6 mg/kg s.c. every 3 days.

“Also recorded” adds a separate entry of the source.

Consider `CC(c1cc(Br)c(O)c(Br)c1)(c1cc(Br)c(O)c(Br)c1)c1cc(Br)c(O)c(Br)c1` [AGS-500, 1,1,1-tris (4-hydroxy-3,5-dibromo-phenyl)-ethane], for which, in experiment [1] (setting [4]), the Blood glucose levels was found to be 275 ± 18 mg/dL and the “effect on the rat hyperglycemic state” value is on record as “no effect”. In addition, the “blood glucose levels of non-fasting animals” value in experiment [1] (rats, STZ 35 mg/kg day 0 and 15, AGS-500 6 mg/kg i.p. every 12 h from day 4, FIG. 1A) is “No reduction”. Also, the “fasting glucose levels (following 12 h fast)” value in experiment [1] (rats, STZ 35 mg/kg day 0 and 15, AGS-500 6 mg/kg i.p. every 12 h from day 4, FIG. 1B) is reported as “significant reduction of blood glucose levels to normal; also recorded: Reduction in Blood Glucose Level”. For the same molecule, in experiment [2] (daily), the “Improvement (fold)” value was 1.5 fold, the “Fold of Improvement” value was determined as 3 fold, the “Time needed for the Pancreas to cope glucose load after 5 months” value came to 30 min and the “Time needed for the Pancreas to cope with glucose load after 2 months” value is reported as 60 min. In addition, in experiment [2] (every 48 hrs), the “Improvement (fold)” value was found to be 3 fold, the “Fold of Improvement” value is on record as “normal”, the “Time needed for the Pancreas to cope glucose load after 5 months” value is reported as 20 min and the “Time needed for the Pancreas to cope with glucose load after 2 months” value came out at 30 min. The “GTT test performed after 5 months” value in experiment [2] (treatment every 48 hours, FIG. 4) is “significant improvement in the GTT test”. Besides, the “circulating glucose levels over time” value in experiment [3] (6 mg/Kg every other day, short course (2 weeks), FIG. 13-1) was “lowering circulating glucose levels significantly”. For the same molecule, the “circulating glucose levels over time, combined with insulin therapy” value in experiment [3] (short course, insulin 0.5-6 units/Kg, FIG. 13-2) was “synergistic contribution”.
